Assay results taken from US20210053957A1, “HERBICIDAL COMPOUNDS” (SYNGENTA PARTICIPATIONS AG, priority 2018, published 2021).

Tests used:
Test in all cases: Post-emergence efficacy, glasshouse spray test
Assay type in all cases: in vivo
Eleusine indica (ELEIN) = conditions: Application Rate 500 g/Ha, evaluated after 13 days; for pest or weed control at 500 g/ha: Eleusine indica, post-emergence, 312 h, read-out: Control of weed species after post-emergence application, ELEIN (100=total damage to plant; 0=no damage to plant)
Procedure: (§1) Seeds of a variety of test species were sown in standard soil in pots. After cultivation for 14 days (post-emergence) under controlled conditions in a glasshouse (at 24/16° C. day/night; 14 hours light; 65% humidity), the plants were sprayed with an aqueous spray solution derived from the dissolution of the technical active ingredient formula (I) in a small amount of acetone and a special solvent and emulsifier mixture referred to as IF50 (11.12% Emulsogen EL360 TM+44.44% N-methyl pyrrolidone+44.44% Dowanol DPM glycolether), to create a 50 g/l solution which was then diluted to required concentration using 0.25% or 1% Empicol ESC70 (Sodium lauryl ether sulphate)+1% ammonium sulphate as diluent. The test plants were then grown in a glasshouse under controlled conditions (at 24/16° C., day/night; 14 hours light; 65% humidity) and watered twice daily. After 13 days the test was evaluated (100=total damage to plant; 0=no damage to plant).
(§2) Ipomoea hederacea (IPOHE), Euphorbia heterophylla (EPHHL), Chenopodium album (CHEAL), Amaranthus palmeri (AMAPA), Lolium perenne (LOLPE), Digitaria sanguinalis (DIGSA), Eleusine indica (ELEIN), Echinochloa crus-galli (ECHCG), Setaia fabei (SETFA)

[1] = tested on: Ipomoea hederacea (IPOHE); conditions: Application Rate 500 g/Ha, evaluated after 13 days; for pest or weed control at 500 g/ha: Ipomoea hederacea, post-emergence, 312 h, read-out: Control of weed species after post-emergence application, IPOHE (100=total damage to plant; 0=no damage to plant)
Procedure: as §1, §2

[2] = tested on: Digitaria sanguinalis (DIGSA); conditions: Application Rate 500 g/Ha, evaluated after 13 days; for pest or weed control at 500 g/ha: Digitaria sanguinalis, post-emergence, 312 h, read-out: Control of weed species after post-emergence application, DIGSA (100=total damage to plant; 0=no damage to plant)
Procedure: as §1, §2

Lolium perenne (LOLPE) = conditions: Application Rate 500 g/Ha, evaluated after 13 days; for pest or weed control at 500 g/ha: Lolium perenne, post-emergence, 312 h, read-out: Control of weed species after post-emergence application, LOLPE (100=total damage to plant; 0=no damage to plant)
Procedure: as §1, §2

[3] = tested on: Echinochloa crus-galli (ECHCG); conditions: Application Rate 500 g/Ha, evaluated after 13 days; for pest or weed control at 500 g/ha: Echinochloa crus-galli, post-emergence, 312 h, read-out: Control of weed species after post-emergence application, ECHCG (100=total damage to plant; 0=no damage to plant)
Procedure: as §1, §2

[4] = tested on: Amaranthus palmeri (AMAPA); conditions: Application Rate 500 g/Ha, evaluated after 13 days; for pest or weed control at 500 g/ha: Amaranthus palmeri, post-emergence, 312 h, read-out: Control of weed species after post-emergence application, AMAPA (100=total damage to plant; 0=no damage to plant)
Procedure: as §1, §2

Setaia fabei (SETFA) = conditions: Application Rate 500 g/Ha, evaluated after 13 days; for pest or weed control at 500 g/ha: Setaria faberi, post-emergence, 312 h, read-out: Control of weed species after post-emergence application, SETFA (100=total damage to plant; 0=no damage to plant)
Procedure: as §1, §2

[5] = tested on: Euphorbia heterophylla (EPHHL); conditions: Application Rate 500 g/Ha, evaluated after 13 days; for pest or weed control at 500 g/ha: Euphorbia heterophylla, post-emergence, 312 h, read-out: Control of weed species after post-emergence application, EPHHL (100=total damage to plant; 0=no damage to plant)
Procedure: as §1, §2

[6] = tested on: Chenopodium album (CHEAL); conditions: Application Rate 500 g/Ha, evaluated after 13 days; for pest or weed control at 500 g/ha: Chenopodium album, post-emergence, 312 h, read-out: Control of weed species after post-emergence application, CHEAL (100=total damage to plant; 0=no damage to plant)
Procedure: as §1, §2

SMILES	pest or weed control at 500 g/ha (Eleusine indica (ELEIN))	pest or weed control at 500 g/ha [1]	pest or weed control at 500 g/ha [2]	pest or weed control at 500 g/ha (Lolium perenne (LOLPE))	pest or weed control at 500 g/ha [3]	pest or weed control at 500 g/ha [4]	pest or weed control at 500 g/ha (Setaia fabei (SETFA))	pest or weed control at 500 g/ha [5]	pest or weed control at 500 g/ha [6]	Control of weed species after post-emergence application, ELEIN (100=total damage to plant; 0=no damage to plant) (Eleusine indica (ELEIN))	Control of weed species after post-emergence application, IPOHE (100=total damage to plant; 0=no damage to plant) [1]	Control of weed species after post-emergence application, DIGSA (100=total damage to plant; 0=no damage to plant) [2]	Control of weed species after post-emergence application, LOLPE (100=total damage to plant; 0=no damage to plant) (Lolium perenne (LOLPE))	Control of weed species after post-emergence application, ECHCG (100=total damage to plant; 0=no damage to plant) [3]	Control of weed species after post-emergence application, AMAPA (100=total damage to plant; 0=no damage to plant) [4]	Control of weed species after post-emergence application, SETFA (100=total damage to plant; 0=no damage to plant) (Setaia fabei (SETFA))	Control of weed species after post-emergence application, EPHHL (100=total damage to plant; 0=no damage to plant) [5]	Control of weed species after post-emergence application, CHEAL (100=total damage to plant; 0=no damage to plant) [6]
Cc1nnc(-c2cc[n+](CCC(=O)O)nc2)o1 [Compound A140]	90%	0%	70%	10%	20%	10%	70%	0%	0%									
COP(=O)(O)CCC[n+]1ccc(-c2ncco2)cn1 [Compound A86]	20%	40%	30%	20%	10%	40%	20%	30%	30%									
Cc1coc(-c2cc[n+](CCS(=O)(=O)[O-])nc2)n1 [Compound A40]	100%	90%	80%	80%	80%	100%	80%	100%	100%									
COC(=O)C[n+]1ccc(-c2nccs2)cn1 [Compound A120]	90%	10%	80%	0%	70%	100%	60%	70%	50%									
COP(=O)(CC[n+]1ccc(-c2ncco2)cn1)OC.O=C([O-])C(F)(F)F [Compound A108]										20	30	60	10	30	20	30	30	20
Cn1cnnc1-c1cc[n+](CCS(=O)(=O)[O-])nc1 [Compound A50]	70%	70%	100%	80%	100%	100%	100%	100%	100%									
Cn1cnc(-c2cc[n+](CCS(=O)(=O)[O-])nc2)n1 [Compound A39]	80%	80%	90%	70%	80%	90%	90%	90%	90%									
O=S(=O)([O-])CC[n+]1ccc(-c2ncco2)cn1 [Compound A19]	100%	70%	70%	90%	80%	40%	60%	100%	100%									
O=C(O)CC[n+]1ccc(-c2nc(C(F)(F)F)co2)cn1 [Compound A56]	80%	30%	70%	50%	90%	100%	80%	90%	80%									
O=S(=O)([O-])CC[n+]1ccc(-c2ncn[nH]2)cn1 [Compound A38]	0%	20%	20%	10%	10%	20%	10%	20%	30%									
COC(=O)CC[n+]1ccc(-c2nccs2)cn1 [Compound A112]	90%	20%	90%	30%	50%	50%	60%	50%	60%									
Cn1nc(C(F)(F)F)cc1-c1cc[n+](CCS(=O)(=O)[O-])nc1 [Compound A30]	40%	20%	30%	50%	20%	80%	40%	40%	40%									
COC(=O)c1ccccc1C[n+]1ccc(-c2ncco2)cn1 [Compound A95]	10%	10%	30%	0%	10%	10%	20%	30%	0%									
O=S(=O)([O-])OCC[n+]1ccc(-c2nccs2)cn1 [Compound A113]	70%	50%	70%	60%	70%	100%	70%	70%	60%									
O=C(O)C[n+]1ccc(-c2nccs2)cn1 [Compound A123]	20%	10%	20%	10%	10%	0%	10%	30%	0%									
O=S(=O)([O-])CC[n+]1ccc(-c2ccns2)cn1 [Compound A5]	80%	70%	60%	100%	70%	100%	60%	100%	100%									
COP(=O)(O)CC[n+]1ccc(-c2ncco2)cn1 [Compound A106]	20%	20%	80%	0%	40%	10%	50%	60%	0%									
